# Measured values: patent US5599548A, “Skin care compositions containing fatty acid amides and retinol or retinyl ester” (priority 1995, dated 1997)
# Where two headings read alike, the source gives them in different places.
# Key:
# [1] = test system: TGase I (keratinocyte transglutaminase level); assay: Transglutaminase (TGase I) ELISA assay (keratinocyte differentiation); assay type: cell-based, human; settings: for activity at 0.1 µM / mean TGase level ± s.d: 72 h, ROH 2.5 × 10^-7 M; for effect on keratinocyte TG1 levels / differentiation, in words: concentrations as in the respective Example
# Protocol: (§1) Human keratinocytes, isolated from neonatal foreskin by trypsin treatment were grown in Dulbecco Modification Eagle (DME) Hams F12 (1:1) medium/10% fetal calf serum in the presence of irradiated 3T3 mouse fibroblasts for establishing dividing keratinocyte colonies. Cells were grown under the above condition until their second passage and kept frozen for future use. […] On day 7, when the cells were 80-90% confluent, they were trypsinized and plated in the serum-free medium for the various experiments.
# During the process of terminal differentiation in the epidermis, a 15 nm thick layer of protein, known as the cornified envelope (CE) is formed on the inner surface of the cell periphery. The CE is composed of numerous distinct proteins which have been cross-linked together by the formation of N^ε -(γ-glutamyl) lysine isodipeptide bonds catalyzed by the action of at least two different transglutaminases (TGases) expressed in the epidermis. TGase I is expressed in abundance in the differentiated layers of the epidermis, especially the granular layer, but is absent in the undifferentiated basal epidermis. Thus TGase I is a useful marker of epidermal keratinocyte differentiation with high TGase I levels indicating a more differentiated state. An ELISA based TGase I assay, using a TGase I antibody, was used to assess the state of differentiation of the cultured keratinocytes in the examples that follow.
# Keratinocytes (cultured as described above) were plated in 96 well plates at a density of 3,000 cells per well in 200 μl media. After incubation for four days the media was changed to media containing test compounds (six replicates per test). The cells were cultured for a further 72 hours after which time the media was aspirated and the plates stored at -70° C. Plates were removed from the freezer, and the cells washed with PBS. 100 μl sterile water was added and the cells were freeze fractured by freezing at -70° C. then thawing. The cells were incubated for one hour at room temperature (R/T) with PBS/3% BSA (wash buffer, bovine serum albumin), then rinsed with a fresh aliquot of wash buffer. Cells were incubated with 50 μl of primary antibodies monoclonal anti-human transglutaminase (IgG) obtained from Amersham (mouse) diluted 1:300 in wash buffer for one hour, 37° C. then rinsed two times with wash buffer. Cells were then incubated with 50 μl of secondary antibody (Feb fragment, peroxidase conjugated anti-mouse IgG obtaining from Amersham) diluted 1:200 in wash buffer for one hour at 37° C., then rinsed two times with wash buffer. Cells were incubated with substrate solution (4 mg o-phenylene diamine and 3.3 μl 30% H2 O2 in 10 ml 0.1M citrate buffer pH 5.0) for five minutes, R/T, in darkness (under aluminum foil). The reaction was stopped by the addition of 50 μl 4N H2 SO4. The absorbance of samples was read at 492 nm in the plate reader. Out of the six replicates, four were treated with both antibodies, two were treated only with the secondary antibody (i.e., to determine background binding of enzyme conjugated Ab). TGase levels were determined by subtracting background from the readings from each treatment and determining mean ±s.d. for the replicates exposed to both Ab.
# Human keratinocytes = assay: 3H-Thymidine incorporation (keratinocyte proliferation); assay type: cell-based; settings: for effect on keratinocyte proliferation, in words: concentrations as in the respective Example; for activity at 0.001 µM: Table 4D, ROH 2.5 × 10^-8 M, linoleoyl-MEA 10^-9 M; for activity at 0.001 µM / activity at 1 µM: RA; for activity at 1 µM: Table 4C, retinol 2.5 × 10^-8 M, palmitoyl-MEA 10^-6 M
# Protocol: as §1
# The incorporation of […] by cultured keratinocytes was used as an assay of keratinocyte proliferation. Thymidine is one of four deoxynucleosides which are the monomeric units of DNA, the universal library of genetic information in the animal kingdom. Prior to cell division of a somatic cell such as a keratinocyte, the complete genome of the cell undergoing cell division is replicated. This involves large scale DNA synthesis by the cell and enables both daughter cells to receive identical copies of the genetic material. When ^3 H-thymidine is included in the culture media of keratinocytes which are synthesizing DNA in preparation for cell division then the labelled nucleoside is incorporated into the newly synthesized DNA. The extent of incorporation of ^3 H-thymidine into a population of cells is proportional to the rate of DNA synthesis by this population of cells and therefore an indication of their cellular proliferation.
# Keratinocytes (that were cultured as described above) were plated in 24 well plates at a density of 40,000 cells per well in 1 ml media. After incubation for four days or until the cells were 60-70% confluent, the media was changed. Test compounds were added (in triplicate) to the wells 24 hours after the media change, and four hours later 1μCi^3 H-Thymidine in 50 μl media was added per well. Cells were incubated for a further 24 hours. Media was removed from the cells, 10% ice cold trichloroacetic acid (TCA) added and plates were incubated on ice for 30 minutes. Cells were washed five times with 5% TCA and allowed to dissolve in 500 μl 0.1M NaOH for at least one hour (usually overnight). The preparations were neutralized with 0.1M HCl; 50 μl of the cell preparation was used to determine total protein content. Disintegrations per minute (DPM) from ^3 H labelling of DNA was determined by liquid scintillation counting of […] of the cell preparation. Thymidine incorporation results were expressed as DPM/μg protein.
structure (smiles),measurement,setting,value
"CC(N)=O [Acetamide (C2), acetamide]",activity at 0.1 µM,"[1]; Homo sapiens, Keratinocyte, Table 6B, RA, acetamide 10^-7 M, alone or combined, n = 3, read-out: TGase (TG1) level, % control",98%
same,mean TGase level ± s.d,"[1]; Table 6B (Effect on Keratinocyte TGase), RA, acetamide 10^-7 M, alone or combined, n = 3",0.480 ± 0.042
same,"effect on keratinocyte TG1 levels / differentiation, in words",[1],no effect on keratinocyte TG1 levels
"NC=O [Formamide (C1), formamide]",activity at 0.1 µM,"[1]; Homo sapiens, Keratinocyte, Table 6A, RA, formamide 10^-7 M, alone or combined, n = 3, read-out: TGase (TG1) level, % control",85%
same,mean TGase level ± s.d,"[1]; Table 6A (Effect on Keratinocyte TGase), RA, formamide 10^-7 M, alone or combined, n = 3",0.413 ± 0.069
same,"effect on keratinocyte TG1 levels / differentiation, in words",[1],small inhibitory effect on keratinocyte TG1 levels
"CCCCC/C=C\C/C=C\CCCCCCCC(=O)O [Linoleic acid (LA), Linoleic acid]",activity at 1 µM,"[1]; Homo sapiens, Keratinocyte, Table 5A, RA, retinol 2.5 × 10^-7 M, linoleic acid 10^-6 M, alone or combined, n = 3, read-out: TGase (TG1) level, % control",> 100%
same,mean TGase ± s.d,"[1]; Table 5A, RA, retinol 2.5 × 10^-7 M, linoleic acid 10^-6 M, alone or combined, n = 3",0.161 ± 0.061
same,"effect on keratinocyte TG1 levels / differentiation, in words",[1],appeared to stimulate TG1
"CCCCC/C=C\C/C=C\CCCCCCCC(=O)OC [Methyl linoleate, methyl linoleate]",activity at 0.01 µM,"[1]; Homo sapiens, Keratinocyte, Table 5B, RA, retinol 2.5 × 10^-8 M, methyl linoleate 10^-8 M, alone or combined, n = 3, read-out: TGase (TG1) level, % control",67%
same,mean TGase ± s.d,"[1]; Table 5B, RA, retinol 2.5 × 10^-8 M, methyl linoleate 10^-8 M, alone or combined, n = 3",0.193 ± 0.033
same,"effect on keratinocyte TG1 levels / differentiation, in words",[1],repressed TG1 to the same extent as 2.5×10^-8 M retinol
CCCCC(=O)N(CCO)CCO [Pentanoyl-DEA (C5-DEA)],activity at 0.1 µM,"[1]; Homo sapiens, Keratinocyte, Table 6C, RA, pentanoyl-DEA 10^-7 M, alone or combined, n = 3, read-out: TGase (TG1) level, % control",99%
same,mean TGase level ± s.d,"[1]; Table 6C (Effect on Keratinocyte TGase), RA, pentanoyl-DEA 10^-7 M, alone or combined, n = 3",0.425 ± 0.079
same,"effect on keratinocyte TG1 levels / differentiation, in words",[1],no effect on keratinocyte TG1 levels
"CCCCCCCCCCCCCCCC(=O)OC/C=C(C)/C=C/C=C(C)/C=C/C1=C(C)CCCC1(C)C [RP, retinyl palmitate]",activity at 0.25 µM,"Human keratinocytes; Homo sapiens, Keratinocyte, 24 h, Table 3A, RA 2.5 × 10^-9 M, RP 2.5 × 10^-7 M, linoleoyl-DEA 10^-8 M, alone or combined, n = 3, read-out: thymidine incorporation, % control",111%
same,mean Thymidine incorp./μg protein ± s.d,"Human keratinocytes; Table 3A, RA 2.5 × 10^-9 M, RP 2.5 × 10^-7 M, linoleoyl-DEA 10^-8 M, alone or combined, n = 3",1884 ± 64 DPM/μg protein
same,"effect on keratinocyte proliferation, in words",Human keratinocytes,increased keratinocyte thymidine incorporation over the control
same,activity at 0.25 µM,"[1]; Homo sapiens, Keratinocyte, Table 3B, RA, RP 2.5 × 10^-7 M, linoleoyl-DEA 10^-6 M, alone or combined, n = 3, read-out: TGase (TG1) level, % control",82%
same,activity at 2.5 µM,"[1]; Homo sapiens, Keratinocyte, Table 8A, 2.5 × 10^-6 M, n = 3, read-out: TGase, % control",95%
same,activity at 0.25 µM,"[1]; Homo sapiens, Keratinocyte, Table 8A, 2.5 × 10^-7 M, n = 3, read-out: TGase, % control",82%
same,activity at 0.025 µM,"[1]; Homo sapiens, Keratinocyte, Table 8A, 2.5 × 10^-8 M, n = 3, read-out: TGase, % control",82%
same,activity at 0.0025 µM,"[1]; Homo sapiens, Keratinocyte, Table 8A, 2.5 × 10^-9 M, n = 3, read-out: TGase, % control",76%
same,activity at 2.5 µM,"[1]; Homo sapiens, Keratinocyte, Table 8B, 2.5 × 10^-6 M, n = 3, read-out: TGase, % control",52%
same,activity at 0.00025 µM,"[1]; Homo sapiens, Keratinocyte, Table 8B, 2.5 × 10^-10 M, n = 3, read-out: TGase, % control",108%
same,mean TGase ± s.d,"[1]; Table 3B, RA, RP 2.5 × 10^-7 M, linoleoyl-DEA 10^-6 M, alone or combined, n = 3",0.177 ± 0.026
same,mean TGase ± s.d,"[1]; Table 8A, 2.5 × 10^-6 M, n = 3",0.206 ± 0.034
same,mean TGase ± s.d,"[1]; Table 8A, 2.5 × 10^-7 M, n = 3",0.177 ± 0.026
same,mean TGase ± s.d,"[1]; Table 8A, 2.5 × 10^-8 M, n = 3",0.177 ± 0.054
same,mean TGase ± s.d,"[1]; Table 8A, 2.5 × 10^-9 M, n = 3",0.165 ± 0.030
same,mean TGase ± s.d,"[1]; Table 8B, 2.5 × 10^-6 M, n = 3",0.063 ± 0.019
same,mean TGase ± s.d,"[1]; Table 8B, 2.5 × 10^-10 M, n = 3",0.132 ± 0.038
"CCCCC/C=C\C/C=C\CCCCCCCC(=O)NCCO [linoleoyl-MEA, linoleoyl-monoethanolamide]",activity at 0.001 µM,"Human keratinocytes; Homo sapiens, Keratinocyte, 24 h, alone or combined, 24 h, n = 3, read-out: thymidine incorporation, % control",67%
same,activity at 0.001 µM,"Human keratinocytes; Homo sapiens, Keratinocyte, 24 h, alone or combined, 24 h, normalized to ethanol control, n = 3, read-out: mean Thymidine incorp./μg protein ± s.d",67 ± 18%
same,"effect on keratinocyte proliferation, in words",Human keratinocytes,inhibitory effect on keratinocyte proliferation
"CCCCCCCCCCCCCCCC(=O)NCCO [palmitoyl-MEA, palmitoyl-monoethanolamide]",activity at 1 µM,"Human keratinocytes; Homo sapiens, Keratinocyte, 24 h, alone or combined, n = 3, read-out: thymidine incorporation, % control",97%
same,activity at 1 µM,"Human keratinocytes; Homo sapiens, Keratinocyte, alone or combined, control = 1.000, n = 3, read-out: mean Thymidine incorp./μg protein ± s.d",97.4 ± 8%
same,"effect on keratinocyte proliferation, in words",Human keratinocytes,Neither 10^-8 M palmitoyl-MEA nor 2.5×10^-8 M retinol had an effect on keratinocyte proliferation
